How the values were obtained:
[1] = molecular target: T1, hRIPK1 (aa 1-375) fusion protein (Homo sapiens, UniProt Q13546); test: ADP-Glo kinase assay: catalytic activity of RIPK1 (autophosphorylation, conversion of ATP to ADP); assay type: biochemical
T1 construct: hRIPK1 (aa 1-375) fusion protein
T1 sequence (Q13546 1-375): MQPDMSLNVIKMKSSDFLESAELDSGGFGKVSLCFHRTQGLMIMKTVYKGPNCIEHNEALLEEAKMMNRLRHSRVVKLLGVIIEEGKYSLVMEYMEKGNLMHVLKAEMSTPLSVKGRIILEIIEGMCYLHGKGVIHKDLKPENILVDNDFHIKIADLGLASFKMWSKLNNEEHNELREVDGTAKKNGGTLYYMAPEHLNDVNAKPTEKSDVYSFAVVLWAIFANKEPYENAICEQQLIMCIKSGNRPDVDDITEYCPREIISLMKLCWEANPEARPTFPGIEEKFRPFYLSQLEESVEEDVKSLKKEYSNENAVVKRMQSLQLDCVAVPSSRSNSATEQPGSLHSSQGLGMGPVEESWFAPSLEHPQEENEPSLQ
Procedure: The catalytic activity of RIPK1 was measured by monitoring the conversion of Adenosine triphosphate (ATP) to Adenosine diphosphate (ADP) due to autophosphorylation using an ADP-Glo kinase kit (Promega, catalog no. V9104).
In detail, 2 μl recombinantly produced hRIPK1 (aa 1-375) fusion protein (end concentration 3.6 μg/ml) and 2 μl compound (end concentration 33300-1.69 nM; DMSO end concentration 1%) were incubated for 30 minutes at room temperature and then 2 μl ATP (ADP Glo kit, end concentration 50 μM) were added. After another 240 minutes incubation at room temperature, 5 μl Promega ADP-Glo reagent I was added to quench the reaction and deplete unconsumed ATP. After an incubation period of 30 minutes, 10 μl Promega ADP-Glo detection reagent II was added resulting in conversion of ADP to ATP, which generates a light-reaction between luciferase and luciferin. Luminescence was quantified after 30 minutes with a Pherastar FS (BMG LABTECH, Ortenberg).
The adjustment was obtained by nonlinear regression using the Levenberg Marquardt algorithm.

U937 cells = test: Cellular assay in U937 cells: activity of RIPK1 inhibitors on TNFα/zVAD.fmk-induced cell death (necroptosis), CellTiter 96 AQueous (MTS) readout; assay type: cell-based; settings: Homo sapiens, U-937
Source text: Upon TNF-Receptor I ligation, Ser/Thr kinase RIPK1 is recruited to a transient receptor complex 1. Upon modification of RIPK1 which promotes activation of RIPK1, complex IIb can form, that involves recruitment of RIPK3 and MLKL (mixed lineage-kinase domain-like protein) which then translocates from the cytosol to the plasma membrane to execute cell death (Cai, Z. et al, Nat. Cell Biol. (2014) 16:55-65).
Cell death was quantified in 96 well plates by determination of the amount of live cell using a CellTiter 96 AQueous reagent (Promega), a calorimetric method to measure the number of live cells by reducing tetrazolium compound [3-(4,5-dimethylthiazol-2-yl)-5-(3-carboxymethoxyphenyl)-2-(4-sulfophenyl)-2H-tetrazolium, inner salt; MTS] into formazan. Absorbance of formazan was read at 490 nm. The inhibitory activity of the test compound was quantified in a concentration response curve (CRC) experiment.
Compounds were obtained as 10 mM stock solutions and were diluted 1 to 10 volumes with DMSO to yield a 1 mM solution. From this solution 2 μl were diluted with 998 μl growth medium. 100 μl of 2 μM compound solution was further diluted sequentially with a dilution factor of 2.5 by adding 150 μl growth medium. A total of 10 concentrations were tested ranging from 10 μM to 0.26 nM or from 1 μM to 0.07 nM.
U937 cells were cultured in RPMI1640 Glutamax and 10% heat inactivated FBS. 50 μl cell suspension containing 1×10^6 cells/ml supplemented with 50 μM zVAD.fmk (Benzyloxycarbonyl-Val-Ala-Asp (OMe) fluoromethylketone) and 100 ng/ml recombinant human TNF[…] were dispensed in each well of a 96-well plate. 50 μl of compound dilutions (described in Cellular assay in U937 cells) were added and the cell suspension incubated overnight (18 to 24 hrs) at 37° C., 5% CO2 in a humidified atmosphere (95% rH). High (no compound) and low control (no TNF[…], zVAD.fmk) were tested with 7 replicates; all compound concentrations were tested in duplicates on each experimental plate.
CellTiter 96 Aqueous reagent was mixed (100 μl PMS (phenazine methosulfate) solution/2 ml MTS (3-(4,5-[…])-5-(3-carboxymethoxyphenyl)-2-(4-sulfophenyl)-2H-tetrazolium, inner salt) solution) and 20 μl were added per well. After 4 hrs incubation at 37° C. (5% CO2 95% rH) optical density was measured at 490 nm on a microplate reader (Tecan Infinite M1000).
The % inhibition is expressed as percentage of the maximal inhibition value obtained in the absence of TNFα/zVAD.fmc.

Row | IC50 [1] | Structure (SMILES) | IC50 (U937 cells)
1 | 28 nM | Cc1cc([C@@H]2CCON2C(=O)[C@H]2CC[C@H](Cn3cnc4cc(F)c(C#N)cc43)CC2)co1 [compound 39, trans-5-fluoro-1-((4-((S)-3-(5-methylfuran-3-yl)isoxazolidine-2-carbonyl)cyclohexyl)methyl)-1H-benzo[d]imidazole-6-carbonitrile] | 15 nM
2 | 19 nM | N#Cc1cc(F)c2cnn(C[C@H]3CC[C@H](C(=O)N4OCC[C@H]4c4cc(F)cc(F)c4)CC3)c2c1 [compound 33, trans-1-((4-((S)-3-(3,5-difluorophenyl)isoxazolidine-2-carbonyl)cyclohexyl)methyl)-4-fluoro-1H-indazole-6-carbonitrile] | 2 nM
3 | 15 nM | Cc1nc2c(C)cc(C[C@H]3CC[C@](C)(C(=O)N4OCC[C@H]4c4cnc(C)c(F)c4)CC3)cn2n1 [compound 403, trans-[4-[(2,8-dimethyl-[1,2,4]triazolo[1,5-a]pyridin-6-yl)methyl]-1-methylcyclohexyl]-[(3S)-3-(5-fluoro-6-methylpyridin-3-yl)-1,2-oxazolidin-2-yl]methanone] | 2 nM
4 | 23 nM | Cc1ccc(C[C@H]2CC[C@H](C(=O)N3OCC[C@H]3c3cc(F)cc(F)c3)CC2)nn1 [compound 304, trans-[(3S)-3-(3,5-difluorophenyl)isoxazolidin-2-yl]-[4-[(6-methylpyridazin-3-yl)methyl]cyclohexyl]methanone] | 33 nM
5 | 51 nM | Cc1ncc(C[C@H]2CC[C@H](C(=O)N3OCC[C@H]3c3cnc(C)c(F)c3)CC2)c(C)n1 [compound 393, [4-[(2,4-dimethylpyrimidin-5-yl)methyl]cyclohexyl]-[(3S)-3-(5-fluoro-6-methylpyridin-3-yl)-1,2-oxazolidin-2-yl]methanone] | 33 nM
6 | 16 nM | Cc1ncc(C#N)cc1C[C@H]1CC[C@H](C(=O)N2OCC[C@H]2c2cc(F)cc(F)c2)CC1 [compound 278, trans-5-[[4-[(3S)-3-(3,5-difluorophenyl)isoxazolidine-2-carbonyl]cyclohexyl]methyl]-6-methyl-pyridine-3-carbonitrile] | 3 nM
7 | 59 nM | N#Cc1cc(F)cc([C@@H]2CCON2C(=O)[C@H]2CC[C@H](Cn3cnc4cc(C#N)c(F)cc43)CC2)c1 [compound 11, trans-1-((4-((S)-3-(3-cyano-5-fluorophenyl)isoxazolidine-2-carbonyl)cyclohexyl)methyl)-6-fluoro-1H-benzo[d]imidazole-5-carbonitrile] | 38 nM
8 | 75 nM | Cc1c(C#N)ncn1C[C@H]1CC[C@H](C(=O)N2OCC[C@H]2c2cc(F)cc(C#N)c2)CC1 [compound 90, trans-1-((4-((S)-3-(3-cyano-5-fluorophenyl)isoxazolidine-2-carbonyl)cyclohexyl)methyl)-5-methyl-1H-imidazole-4-carbonitrile] | 147 nM
9 | 17 nM | Cc1cc([C@@H]2CCON2C(=O)[C@H]2CC[C@H](Cn3ncc4c(F)cc(C#N)cc43)CC2)co1 [compound 44, trans-4-fluoro-1-((4-((S)-3-(5-methylfuran-3-yl)isoxazolidine-2-carbonyl)cyclohexyl)methyl)-1H-indazole-6-carbonitrile] | 2 nM
10 | 18 nM | Cc1cc([C@@H]2CCON2C(=O)[C@H]2CC[C@H](Cn3ccc4c(F)cc(C#N)cc43)CC2)co1 [compound 47, trans-4-fluoro-1-((4-((S)-3-(5-methylfuran-3-yl)isoxazolidine-2-carbonyl)cyclohexyl)methyl)-1H-indole-6-carbonitrile] | 3 nM
11 | 11 nM | Cn1nccc1C[C@H]1CC[C@H](C(=O)N2OCC[C@H]2c2ccc(F)c(F)c2)CC1 [compound 311, trans-[(3S)-3-(3,4-difluorophenyl)isoxazolidin-2-yl]-[4-[(2-methylpyrazol-3-yl)methyl]cyclohexyl]methanone] | 16 nM
12 | 35 nM | Cc1cc(C[C@H]2CC[C@H](C(=O)N3OCC[C@H]3c3coc(C)n3)CC2)c(C)cn1 [compound 377, trans-[4-[(2,5-dimethylpyridin-4-yl)methyl]cyclohexyl]-[(3S)-3-(2-methyl-1,3-oxazol-4-yl)-1,2-oxazolidin-2-yl]methanone] | 36 nM
13 | 81 nM | COc1cc(C[C@H]2CC[C@H](C(=O)N3OCC[C@H]3c3cncc(C)c3)CC2)cn2nc(C)nc12 [compound 383, trans-[4-[(8-methoxy-2-methyl-[1,2,4]triazolo[1,5-a]pyridin-6-yl)methyl]cyclohexyl]-[(3S)-3-(5-methylpyridin-3-yl)-1,2-oxazolidin-2-yl]methanone] | 47 nM
14 | 49 nM | Cc1nc([C@@H]2CCON2C(=O)[C@H]2CC[C@H](Cn3ncc4ccc(C(N)=O)cc43)CC2)cs1 [Compound 234, trans-1-[[4-[(3S)-3-(2-methylthiazol-4-yl)isoxazolidine-2-carbonyl]cyclohexyl]methyl]indazole-6-carboxamide] | 126 nM
15 | 13 nM | N#Cc1cncc(C[C@H]2CC[C@H](C(=O)N3OCC[C@H]3c3cc(F)cc(C#N)c3)CC2)c1 [compound 141, trans-5-[[4-[(3S)-3-(3-cyano-5-fluoro-phenyl)isoxazolidine-2-carbonyl]cyclohexyl]methyl]pyridine-3-carbonitrile] | 17 nM
16 | 40 nM | N#Cc1cncc(C[C@H]2CC[C@H](C(=O)N3OCC[C@H]3c3cnccn3)CC2)c1 [compound 140, trans-5-[[4-[(3S)-3-pyrazin-2-ylisoxazolidine-2-carbonyl]cyclohexyl]methyl]pyridine-3-carbonitrile] | 173 nM
17 | 32 nM | Cc1ncn(C[C@H]2CC[C@H](C(=O)N3OCC[C@H]3c3cc(F)cc(F)c3)CC2)c1C [compound 83, trans-((S)-3-(3,5-difluorophenyl)isoxazolidin-2-yl)(4-((4,5-dimethyl-1H-imidazol-1-yl)methyl)cyclohexyl)methanone] | 22 nM
18 | 2 nM | Cc1c(F)cc([C@@H]2CCON2C(=O)[C@H]2CC[C@H](Cc3cncc(C#N)c3C)CC2)cc1C#N [compound 287, trans-5-[[4-[(3S)-3-(3-cyano-5-fluoro-4-methyl-phenyl)isoxazolidine-2-carbonyl]cyclohexyl]methyl]-4-methyl-pyridine-3-carbonitrile] | 1 nM
19 | 23 nM | Cc1nn(C[C@H]2CC[C@H](C(=O)N3OCC[C@H]3c3cc(F)cc(C#N)c3)CC2)c2cc(C(N)=O)cc(F)c12 [compound 102, trans-1-((4-((S)-3-(3-cyano-5-fluorophenyl)isoxazolidine-2-carbonyl)cyclohexyl)methyl)-4-fluoro-3-methyl-1H-indazole-6-carboxamide] | 37 nM
20 | 32 nM | Cc1ncc(F)cc1C[C@H]1CC[C@H](C(=O)N2OCC[C@H]2c2cnccn2)CC1 [compound 180, trans-[4-[(5-fluoro-2-methyl-3-pyridyl)methyl]cyclohexyl]-[(3S)-3-pyrazin-2-ylisoxazolidin-2-yl]methanone] | 11 nM

— patent publication US20260158009A1 (GENZYME CORPORATION, priority 2023, published 2026)
